# How the values were obtained:
# Type in all cases: in vivo
# Sunflower [1] = assay: Test C preemergence; conditions: Rate 250 g/ha, visual evaluation after 12 to 14 days
# [2] = system: morningglory (Ipomoea hederacea); assay: Test C preemergence
# In short: (§1)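 Preemergence: seeds sown then treated. Postemergence: plants 2–18 cm, 1- to 4-leaf. Both with surfactant-containing solvent formulation; visual injury scored 0–100 after 12–14 d.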
# [3] = system: Surinam grass (Brachiaria decumbens); assay: Test C preemergence
# In short: as §1
# [4] = system: cocklebur (Xanthium strumarium); assay: Test C preemergence
# In short: as §1
# Nightshade = assay: Test C preemergence
# [5] = system: giant foxtail (Setaria faberii); assay: Test C preemergence
# In short: as §1
# [6] = system: pigweed (Amaranthus retroflexus); assay: Test C preemergence
# In short: as §1
# [7] = system: goosegrass (Eleusine indica); assay: Test C preemergence
# In short: as §1
# Sunflower [8] = assay: Test C preemergence
# [9] = system: johnsongrass (Sorghum halepense); assay: Test C preemergence
# In short: as §1
# [10] = system: lambsquarters (Chenopodium album); assay: Test C preemergence
# In short: as §1
# soybean (Glycine max) = assay: Test C preemergence
# In short: as §1
# [11] = system: crabgrass (Digitaria sanguinalis); assay: Test C preemergence
# In short: as §1
# [12] = system: common ragweed (Ambrosia elatior); assay: Test C preemergence
# In short: as §1
# corn (Zea mays) = assay: Test C preemergence
# In short: as §1
# [13] = system: woolly cupgrass (Eriochloa villosa); assay: Test C preemergence
# In short: as §1
# [14] = system: bermudagrass (Cynodon dactylon); assay: Test C preemergence
# In short: as §1
# kochia (Kochia scoparia) = assay: Test C preemergence
# In short: as §1
# [15] = system: yellow nutsedge (Cyperus esculentus); assay: Test C preemergence
# In short: as §1
# [16] = system: velvetleaf (Abutilon theophrasti); assay: Test C preemergence
# In short: as §1
# rice (Oryza saliva) = assay: Test C flooded paddy test; conditions: for Rice plant response rating: Flooded Paddy, scale 0 to 100, 0 no effect, 100 complete control; for Plant response rating, Rice: flooded paddy test, scale 0 to 100 (0 no effect, 100 complete control)
# In short: (§2)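 Flooded paddy, 2-leaf stage at treatment. Readout: visual % control vs untreated, 0–100, at 12–14 d in greenhouse.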
# [17] = system: barnyardgrass (Echinochloa crus-galli); assay: Test C flooded paddy test; conditions: for Barnyardgrass plant response rating: Flooded Paddy, scale 0 to 100, 0 no effect, 100 complete control; for Plant response rating, Barnyardgrass: flooded paddy test, scale 0 to 100 (0 no effect, 100 complete control)
# In short: as §2
# [18] = Preemergence, Rate 500 g/ha, scale 0 to 100
# [19] = Rate 62 g/ha, scale 0 to 100, 0 no effect, 100 complete control
# [20] = preemergence, Rate 31 g/ha, scale 0 to 100
# [21] = preemergence, Rate 250 g/ha, visual evaluation after 12 to 14 days
# [22] = preemergence, Rate 125 g/ha, scale 0 to 100, 0 no effect, 100 complete control
compound,measurement,setting,value
CCC(CC)c1ccn(C2SCN(c3cccc(C(F)(F)F)c3)C2=O)n1 (stereo not shown) [Compound 25],"Plant response rating (0 to 100), Sunflower",Sunflower [1],70
same,"Plant response rating, Morningglory",[2]; [18],90
same,"Plant response rating, Morningglory",[2]; [19],20
same,"Plant response rating, Morningglory",[2]; [20],0
same,"Plant response rating (0 to 100), Morningglory",[2]; [21],100
same,"Plant response rating, Morningglory",[2]; [22],30
same,"Plant response rating, Surinam grass",[3]; [18],80
same,"Plant response rating, Surinam grass",[3]; [19],40
same,"Plant response rating, Surinam grass",[3]; [20],20
same,"Plant response rating (0 to 100), Surinam grass",[3]; [21],80
same,"Plant response rating, Surinam grass",[3]; [22],80
same,"Plant response rating, Cocklebur",[4]; [18],70
same,"Plant response rating, Cocklebur",[4]; [19],0
same,"Plant response rating, Cocklebur",[4]; [20],0
same,"Plant response rating (0 to 100), Cocklebur",[4]; [21],100
same,"Plant response rating, Cocklebur",[4]; [22],0
same,"Plant response rating, Nightshade","Nightshade; Rate 31 g/ha, scale 0 to 100",20
same,"Plant response rating, Nightshade",Nightshade; [19],100
same,"Plant response rating, Nightshade","Nightshade; Rate 125 g/ha, scale 0 to 100, 0 no effect, 100 complete control",100
same,"Plant response rating, Nightshade","Nightshade; Rate 500 g/ha, scale 0 to 100",100
same,"Plant response rating, Foxtail, Giant",[5]; [18],90
same,"Plant response rating, Foxtail, Giant",[5]; [19],90
same,"Plant response rating, Foxtail, Giant",[5]; [20],20
same,"Plant response rating (0 to 100), Foxtail, Giant",[5]; [21],100
same,"Plant response rating, Foxtail, Giant",[5]; [22],70
same,"Plant response rating, Pigweed",[6]; [18],90
same,"Plant response rating, Pigweed",[6]; [19],60
same,"Plant response rating, Pigweed",[6]; [20],100
same,"Plant response rating (0 to 100), Pigweed",[6]; [21],90
same,"Plant response rating, Pigweed",[6]; [22],100
same,"Plant response rating, Goosegrass",[7]; [18],100
same,"Plant response rating, Goosegrass",[7]; [19],100
same,"Plant response rating, Goosegrass",[7]; [20],100
same,"Plant response rating (0 to 100), Goosegrass",[7]; [21],100
same,"Plant response rating, Goosegrass",[7]; [22],100
same,"Plant response rating, Sunflower",Sunflower [8]; [19],30
same,"Plant response rating, Sunflower","Sunflower [8]; Rate 500 g/ha, scale 0 to 100",70
same,"Plant response rating, Johnsongrass",[9]; [18],100
same,"Plant response rating, Johnsongrass",[9]; [19],70
same,"Plant response rating, Johnsongrass",[9]; [20],30
same,"Plant response rating (0 to 100), Johnsongrass",[9]; [21],90
same,"Plant response rating, Johnsongrass",[9]; [22],90
same,"Plant response rating, Lambsquarters",[10]; [18],100
same,"Plant response rating, Lambsquarters",[10]; [19],100
same,"Plant response rating, Lambsquarters",[10]; [20],100
same,"Plant response rating (0 to 100), Lambsquarters",[10]; [21],100
same,"Plant response rating, Lambsquarters",[10]; [22],100
same,"Plant response rating, Soybean",soybean (Glycine max); [18],60
same,"Plant response rating, Soybean",soybean (Glycine max); [19],0
same,"Plant response rating, Soybean",soybean (Glycine max); [20],20
same,"Plant response rating (0 to 100), Soybean",soybean (Glycine max); [21],50
same,"Plant response rating, Soybean",soybean (Glycine max); [22],30
same,"Plant response rating, Crabgrass",[11]; [18],100
same,"Plant response rating, Crabgrass",[11]; [19],100
same,"Plant response rating, Crabgrass",[11]; [20],100
same,"Plant response rating (0 to 100), Crabgrass",[11]; [21],100
same,"Plant response rating, Crabgrass",[11]; [22],100
same,"Plant response rating, Ragweed, Common",[12]; [18],100
same,"Plant response rating, Ragweed, Common",[12]; [19],70
same,"Plant response rating, Ragweed, Common",[12]; [20],0
same,"Plant response rating (0 to 100), Ragweed, Common",[12]; [21],70
same,"Plant response rating, Ragweed, Common",[12]; [22],70
same,"Plant response rating, Corn",corn (Zea mays); [18],50
same,"Plant response rating, Corn",corn (Zea mays); [19],0
same,"Plant response rating, Corn",corn (Zea mays); [20],0
same,"Plant response rating (0 to 100), Corn",corn (Zea mays); [21],20
same,"Plant response rating, Corn",corn (Zea mays); [22],20
same,"Plant response rating, Cupgrass, Woolly",[13]; [18],100
same,"Plant response rating, Cupgrass, Woolly",[13]; [19],80
same,"Plant response rating, Cupgrass, Woolly",[13]; [20],60
same,"Plant response rating (0 to 100), Cupgrass, Woolly",[13]; [21],100
same,"Plant response rating, Cupgrass, Woolly",[13]; [22],100
same,"Plant response rating, Bermudagrass",[14]; [18],100
same,"Plant response rating, Bermudagrass",[14]; [19],100
same,"Plant response rating, Bermudagrass",[14]; [20],90
same,"Plant response rating (0 to 100 where 0 is no effect and 100 is complete control), Bermudagrass",[14]; [21],100
same,"Plant response rating, Bermudagrass",[14]; [22],100
same,"Plant response rating, Kochia",kochia (Kochia scoparia); [18],100
same,"Plant response rating, Kochia",kochia (Kochia scoparia); [19],50
same,"Plant response rating, Kochia",kochia (Kochia scoparia); [20],60
same,"Plant response rating (0 to 100), Kochia",kochia (Kochia scoparia); [21],100
same,"Plant response rating, Kochia",kochia (Kochia scoparia); [22],100
same,"Plant response rating, Nutsedge",[15]; [18],0
same,"Plant response rating, Nutsedge",[15]; [19],0
same,"Plant response rating, Nutsedge",[15]; [20],0
same,"Plant response rating (0 to 100), Nutsedge",[15]; [21],40
same,"Plant response rating, Nutsedge",[15]; [22],0
same,"Plant response rating, Velvetleaf",[16]; [18],20
same,"Plant response rating, Velvetleaf",[16]; [19],30
same,"Plant response rating, Velvetleaf",[16]; [20],0
same,"Plant response rating (0 to 100), Velvetleaf",[16]; [21],70
same,"Plant response rating, Velvetleaf",[16]; [22],0
same,Rice plant response rating,rice (Oryza saliva); Rate 250 g/ha,60
same,Rice plant response rating,rice (Oryza saliva); Rate 500 g/ha,80
same,"Plant response rating, Rice",rice (Oryza saliva); Rate 62 g/ha,30
same,"Plant response rating, Rice",rice (Oryza saliva); Rate 125 g/ha,20
same,Barnyardgrass plant response rating,[17]; Rate 250 g/ha,100
same,Barnyardgrass plant response rating,[17]; Rate 500 g/ha,100
same,"Plant response rating, Barnyardgrass",[17]; Rate 62 g/ha,100
same,"Plant response rating, Barnyardgrass",[17]; Rate 125 g/ha,100

# From patent US7138361B2, “Herbicidal heterocycles” (E. I. du Pont de Nemours and Company, priority 2000, dated 2006)
